Results as given in patent US11154621B2, “Liponucleotide-based therapy for COPD” (priority 2017, dated 2021).

What was measured:
[1] = test system: influenza A/WSN/33 (H1N1)-infected mice; experiment: Effect of influenza infection and i.p. liponucleotide treatment on lung function; format: in vivo, mouse
[2] = test system: BLEO-induced pulmonary fibrosis in C57BL/6 mice; experiment: Mouse model of pulmonary fibrosis (bleomycin exposure); format: in vivo; conditions: for Mortality: CDP-CHO, CDP-ETH 5 mg/kg, CDP-DAG 0.5 mg/kg
Procedure: To experimentally determine the efficacy of the liponucleotides (lipoNTs) CDP-choline (CDP-CHO), CDP-ethanolamine (CDP-ETH), and CDP-diacylglycerol 16:0/16:0 (CDP-DAG) as therapeutics in a mouse model of pulmonary fibrosis (bleomycin exposure) (Chung S, et al. Oncotarget 2016 7:17532-17546).
To induce […], bleomycin (BLEO) was administered intratracheally to adult female C57BL/6 mice (n=5-10 per group) by per os intubation under light ketamine/xylazine anesthesia at day 0. LipoNTs were administered daily by the intraperitoneal route in 50 μl sterile saline at the timepoints indicated for each group.
Data were collected 21 days after first exposure to BLEO in terminal experiments.
2. Carotid arterial O2 saturation (SaO2) and heart rate were measured in conscious individually-identified animals by pulse oximetry using the MouseOx system.
3. Static lung compliance (CST) was measured in live mice by the forced-oscillation method using the SciReq flexiVent computer-controlled mechanical ventilator, as in previous studies (Traylor Z P, et al. Am J Physiol Lung Cell Mol Physiol 2010 298:L437-L445).
4. Following flexiVent analysis, lungs were removed and flash frozen in liquid N2 for analysis of collagen content. Soluble collagen was measured by a standard Sircol assay.

[3] = test system: elastase-induced emphysema in C57BL/6 mice; experiment: Mouse model of emphysema (intratracheal elastase administration); format: in vivo; conditions: daily i.p. days 1-13, day 14
Procedure: To experimentally determine the efficacy of the liponucleotides (lipoNTs) CDP-choline (CDP-CHO), CDP-ethanolamine (CDP-ETH), and CDP-diacylglycerol 16:0/16:0 (CDP-DAG) as therapeutics in a mouse model of emphysema (intratracheal elastase administration) (Yoshida S, et al. Am J Physiol Lung Cell Mol Physiol 2012 303:L852-L860).
To induce emphysema, porcine pancreatic elastase was administered intratracheally to adult female C57BL/6 mice (n=5-10 per group) by per os intubation under light anesthesia at day 0 and day 7. LipoNTs were administered daily by the intraperitoneal route in 50 μl sterile saline at the timepoints indicated for each group.
Analysis of elastase and lipoNT effects: Data were collected 14 days after first elastase administration in terminal experiments.
1. Static lung compliance (CST) was measured in live mice by the forced-oscillation method using the SciReq flexiVent computer-controlled mechanical ventilator, as in previous studies (Traylor Z P, Yet al. Am J Physiol Lung Cell Mol Physiol 2010 298:L437-L445).
2. Following flexiVent analysis, bronchoalveolar lavage was performed on all mice using 0.8 ml PBS. BALF total and differential cell counts (trypan-blue stained live cells and Giemsa-stained cytospins, respectively) were performed on cell pellets to assess inflammatory cell infiltrates. BALF alveolar macrophage (AM) counts were determined.

[4] = infected mice, day 6, i.p. daily from 1-5 days post-infection, CDP-CHO, CDP-ETH 100 μg/mouse, CDP-DAG 10 μg/mouse

C[N+](C)(C)CCOP(=O)(O)OP(=O)(O)OC[C@H]1O[C@@H](n2ccc(N)nc2=O)C(O)C1O (stereo partly shown) [CDP-CHO, CDP-choline]
PaO2 equivalent ([1]; equivalent of SaO2 increase, from approximately 65 mmHg): approximately 85 mmHg | O2 carrying capacity of blood (CaO2) ([1]; equivalent of SaO2 increase, from approximately 88%): approximately 97 % of normal | SaO2 after CDP-choline treatment ([1]; increased from approximately 85%, infected mice): approximately 96% | effects of single dose treatment late in infection compared with daily treatment ([1]; infected mice): as good as those of daily treatment | SaO2 (%) [1, 4]: 93.5 ± 1.0 % | Mortality ([2]; BLEO, daily i.p. D1-20, day 21): significantly attenuated BLEO-induced mortality | Mortality ([2]; BLEO, daily i.p. D1-20, day 21, listed as CHO): 20% | CST (ml/cmH2O ×10) ([2]; BLEO, daily i.p. D1-20, day 21): 0.38 ± 0.02 ml/cmH2O ×10 | SaO2 (%) ([2]; BLEO, daily i.p. D1-20, day 21): 97.0 ± 1.0% | Collagen ([2]; BLEO, daily i.p. D1-20, lung soluble collagen, day 21): 0.79 ± 0.08 mg/mL | other beneficial effects in this model of pulmonary fibrosis ([2]; daily from 1-20 days after BLEO): no other beneficial effects | static lung compliance (CST) ([3]; CDP-CHO, CDP-ETH 5 mg/kg, CDP-DAG 0.5 mg/kg): decreases CST | elastase-induced increase in BALF alveolar macrophages (AMs) [3]: enhanced

CDP-diacylglycerol [CDP-DAG]
HR (bpm) [1, 4]: 600 ± 10 bpm | SaO2 (%) [1, 4]: 95.2 ± 1.6 % | WET:DRY [1, 4]: 5.8 ± 0.1
